Results reported in patent US11453647B2, “Benzimidazole derivatives as adenosine receptor antagonists” (Merck Patent GmbH, priority 2017, dated 2022).

Experiments:
Assay type in all cases: cell-based
[1] = molecular target: T1, human A1 receptor (Homo sapiens, UniProt P30542); assay: functional cAMP (HTRF) assay, recombinant CHO cells expressing human A1 receptor, forskolin, agonist CPA
T1 construct: expressed in transfected cells; host or cells: CHO
T1 sequence (P30542 1-326): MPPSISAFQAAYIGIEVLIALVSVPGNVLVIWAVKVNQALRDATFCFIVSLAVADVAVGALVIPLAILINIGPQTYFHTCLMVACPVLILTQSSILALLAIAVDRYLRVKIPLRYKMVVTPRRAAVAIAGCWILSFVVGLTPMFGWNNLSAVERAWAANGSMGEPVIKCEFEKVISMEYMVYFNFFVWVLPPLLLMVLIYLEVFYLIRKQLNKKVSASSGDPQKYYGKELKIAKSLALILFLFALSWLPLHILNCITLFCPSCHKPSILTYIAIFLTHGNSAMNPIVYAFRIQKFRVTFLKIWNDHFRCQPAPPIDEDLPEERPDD
Description: (§1) The functional activities of human A2A, A2B, A1 and A3 receptors were determined by quantification of cAMP, being the second messenger for adenosine receptors.
(§2) For human A1 and A3 receptors, recombinant CHO cells, expressing either A1 or A3-receptor, were used. As both receptors couple to Gi proteins, the assay protocol was adapted:
(§3) Cells were seeded into 384-well plates, forskolin, test compounds and agonists (CPA for A1- and IB-MECA for A3-receptor) were added. After 30 min incubation, HTRF reagents (cAMP dynamic 2, Cis Bio) were added and the cellular cAMP levels were determined using the ENVISION (Perkin Elmer) plate reader. Obtained raw data were normalized against the inhibitor control and the neural control (DMSO) and the normalized data were fitted using GeneData software.

[2] = molecular target: T2, human A2A receptor (Homo sapiens, UniProt P29274); assay: functional cAMP (HTRF) assay, recombinant HEK293 cells expressing human A2A receptor, agonist NECA
T2 construct: expressed in transfected cells; host or cells: HEK293

[3] = molecular target: T3, A2B receptors (Homo sapiens, UniProt P29275); assay: functional cAMP (HTRF) assay, recombinant HEK293 cells expressing human A2B receptor, agonist NECA; set-up: expressed in transfected cells; host or cells: HEK293
T3 sequence (P29275 1-332): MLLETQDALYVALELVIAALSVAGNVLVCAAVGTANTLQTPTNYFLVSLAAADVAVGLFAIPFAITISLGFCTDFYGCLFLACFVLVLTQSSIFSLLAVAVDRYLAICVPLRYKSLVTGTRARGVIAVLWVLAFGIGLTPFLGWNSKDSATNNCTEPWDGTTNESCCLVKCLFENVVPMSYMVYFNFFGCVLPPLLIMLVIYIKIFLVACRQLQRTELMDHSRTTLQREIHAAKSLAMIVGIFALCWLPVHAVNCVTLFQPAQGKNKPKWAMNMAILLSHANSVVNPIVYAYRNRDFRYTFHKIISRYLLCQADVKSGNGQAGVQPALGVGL

[4] = molecular target: T4, human A3 receptor (Homo sapiens, UniProt P0DMS8); assay: functional cAMP (HTRF) assay, recombinant CHO cells expressing human A3 receptor, forskolin, agonist IB-MECA
T4 construct: expressed in transfected cells; host or cells: CHO
T4 sequence (P0DMS8 1-318): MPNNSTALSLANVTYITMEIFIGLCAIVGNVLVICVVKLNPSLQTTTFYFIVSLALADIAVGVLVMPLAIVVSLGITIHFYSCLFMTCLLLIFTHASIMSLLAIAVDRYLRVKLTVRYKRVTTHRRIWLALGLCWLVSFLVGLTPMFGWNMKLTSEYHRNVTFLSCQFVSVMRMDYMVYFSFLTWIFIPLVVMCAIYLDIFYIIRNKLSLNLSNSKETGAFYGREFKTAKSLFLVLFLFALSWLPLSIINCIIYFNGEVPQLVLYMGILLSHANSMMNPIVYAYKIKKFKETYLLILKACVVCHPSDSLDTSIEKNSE
Description: as §1, §2, §3

T2 sequence (P29274 whole entry): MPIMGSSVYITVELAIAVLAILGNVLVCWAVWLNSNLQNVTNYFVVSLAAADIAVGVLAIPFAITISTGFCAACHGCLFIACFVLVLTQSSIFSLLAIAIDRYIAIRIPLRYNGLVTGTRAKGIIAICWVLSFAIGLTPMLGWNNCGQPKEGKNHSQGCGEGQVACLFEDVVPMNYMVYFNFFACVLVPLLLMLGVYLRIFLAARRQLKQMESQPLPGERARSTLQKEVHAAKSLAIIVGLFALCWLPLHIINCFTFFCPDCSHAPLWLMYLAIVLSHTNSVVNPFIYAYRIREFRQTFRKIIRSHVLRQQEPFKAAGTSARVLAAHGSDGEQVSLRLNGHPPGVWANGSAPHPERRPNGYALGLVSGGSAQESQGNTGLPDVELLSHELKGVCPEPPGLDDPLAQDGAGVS

SMILES	IC50 [1] [nM]	IC50 [2] [nM]	IC50 [3] [nM]	IC50 [4] [nM]
COc1ccc(-c2ccncc2)c2nc(NC(=O)c3ccc(CN(C)C)cc3)[nH]c12 [compound 89, 4-[(dimethylamino)methyl]-N-[7-methoxy-4-(pyridin-4-yl)-1H-1,3-benzodiazol-2-yl]benzamide]		< 100	< 1000	> 1000
CCCN(C)C(=O)c1ccc(C(=O)Nc2nc3c(OC)ccc(-c4ccccc4)c3[nH]2)cc1 [compound 297, N4-(4-methoxy-7-phenyl-1H-1,3-benzodiazol-2-yl)-N1-methyl-N1-propylbenzene-1,4-dicarboxamide]		< 100	< 100	< 1000
COc1ccc(C2CCOCC2)c2nc(NC(=O)NCc3nccs3)[nH]c12 [compound 228, 3-[7-methoxy-4-(oxan-4-yl)-1H-1,3-benzodiazol-2-yl]-1-[(1,3-thiazol-2-yl)methyl]urea]	> 1000	< 100		
COc1ccc(-c2ccccc2)c2nc(NC(=O)c3cnc4cccnn34)[nH]c12 [compound 288, N-(7-methoxy-4-phenyl-1H-1,3-benzodiazol-2-yl)imidazo[1,2-b]pyridazine-3-carboxamide]		< 100	< 100	< 1000
COc1ccc(-c2ccncc2)c2[nH]c(NC(=O)c3c[nH]cn3)nc12 [compound 266, N-[4-methoxy-7-(pyridin-4-yl)-1H-1,3-benzodiazol-2-yl]-1H-imidazole-4-carboxamide]	> 1000	< 100	< 100	
CCCNC(=O)c1ccc(C(=O)Nc2nc3c(OC)ccc(-c4ccccc4)c3[nH]2)cc1 [compound 293, N1-(4-methoxy-7-phenyl-1H-1,3-benzodiazol-2-yl)-N4-propylbenzene-1,4-dicarboxamide]		< 100	< 100	< 1000
COc1ccc(-c2ccccc2)c2nc(NC(=O)c3ccc(CN4CCCC4=O)cc3)[nH]c12 [compound 311, N-(7-methoxy-4-phenyl-1H-1,3-benzodiazol-2-yl)-4-[(2-oxopyrrolidin-1-yl)methyl]benzamide]		< 100	< 10	< 1000
COCCN(C)C(=O)c1ccc(C(=O)Nc2nc3c(OC)ccc(-c4ccccc4)c3[nH]2)cc1 [compound 295, N4-(4-methoxy-7-phenyl-1H-1,3-benzodiazol-2-yl)-N1-(2-methoxyethyl)-N1-methylbenzene-1,4-dicarboxamide]		< 100	< 100	< 1000
COCCn1cc(C(=O)Nc2nc3c(-c4cccc5cc[nH]c45)ccc(OC)c3[nH]2)cn1 [compound 304, N-[4-(1H-indol-7-yl)-7-methoxy-1H-1,3-benzodiazol-2-yl]-1-(2-methoxyethyl)-1H-pyrazole-4-carboxamide]		< 100	< 100	< 1000
COc1ccc(-c2ccccc2)c2[nH]c(NC(=O)c3ccc(C(=O)N4CCN(C)CC4)cc3)nc12 [compound 294, N-(4-methoxy-7-phenyl-1H-1,3-benzodiazol-2-yl)-4-(4-methylpiperazine-1-carbonyl)benzamide]		< 100	< 10	< 1000
COc1ccc(-c2ccccc2)c2nc(NC(=O)N3CCC4(CCOCC4)C3)[nH]c12 [compound 310, N-(7-methoxy-4-phenyl-1H-1,3-benzodiazol-2-yl)-8-oxa-2-azaspiro[4.5]decane-2-carboxamide]		< 100	< 100	> 1000

Results, then the compound that gave them:

IC50 [1] [nM]	IC50 [2] [nM]	IC50 [3] [nM]	IC50 [4] [nM]	SMILES
< 1000	< 10	< 10		COc1ccc(-c2ccccc2)c2nc(NC(=O)c3cncs3)[nH]c12 [compound 256, N-(7-methoxy-4-phenyl-1H-1,3-benzodiazol-2-yl)-1,3-thiazole-5-carboxamide]
< 1000	< 10	< 10		COc1ccc(-c2ccccc2)c2nc(NC(=O)c3cncn3C)[nH]c12 [compound 254, N-(7-methoxy-4-phenyl-1H-1,3-benzodiazol-2-yl)-1-methyl-1H-imidazole-5-carboxamide]
< 1000	< 100	< 100		COc1ccc(-c2ccccc2)c2nc(NC(=O)c3cnc4n3CCCC4)[nH]c12 [compound 291, N-(7-methoxy-4-phenyl-1H-1,3-benzodiazol-2-yl)-5H,6H,7H,8H-imidazo[1,2-a]pyridine-3-carboxamide]
< 1000	< 10	< 10		COc1ccc(-c2cnn(C)c2)c2nc(NC(=O)c3cncs3)[nH]c12 [compound 219, N-[7-methoxy-4-(1-methyl-1H-pyrazol-4-yl)-1H-1,3-benzodiazol-2-yl]-1,3-thiazole-5-carboxamide]
> 1000	< 10	< 100		COc1ccc(C2CCOCC2)c2nc(NC(=O)c3cnc(C)s3)[nH]c12 [compound 227, N-[7-methoxy-4-(oxan-4-yl)-1H-1,3-benzodiazol-2-yl]-2-methyl-1,3-thiazole-5-carboxamide]
> 1000	< 10	> 1000		COc1ccc(C2CCOCC2)c2nc(NC(=O)c3ccnc(N4CCC(C)(O)CC4)c3)[nH]c12 [compound 118, 2-(4-hydroxy-4-methylpiperidin-1-yl)-N-[7-methoxy-4-(oxan-4-yl)-1H-1,3-benzodiazol-2-yl]pyridine-4-carboxamide]
> 1000	< 100	< 100		COc1ccc(-c2ccc3cc[nH]c3c2)c2nc(NC(=O)N3CCC(C)(O)CC3)[nH]c12 [compound 272, 4-hydroxy-N-[4-(1H-indol-6-yl)-7-methoxy-1H-1,3-benzodiazol-2-yl]-4-methylpiperidine-1-carboxamide]
	< 10	> 1000	< 1000	COc1ccc(-c2cnn(C)c2)c2nc(NC(=O)c3ccnc(N4CCC(C)(O)C4)c3)[nH]c12 (centres unmarked) [compound 30, 2-(3-Hydroxy-3-methyl-pyrrolidin-1-yl)-N-[7-methoxy-4-(1-methyl-1H-pyrazol-4-yl)-1H-benzoimidazol-2-yl]-isonicotinamide]
< 1000	< 10	< 10		COc1ccc(-c2ccccc2F)c2nc(NC(=O)c3cnn(C)c3)[nH]c12 [compound 243, N-[4-(2-fluorophenyl)-7-methoxy-1H-1,3-benzodiazol-2-yl]-1-methyl-1H-pyrazole-4-carboxamide]
< 1000	< 10	< 10		COc1ccc(-c2cccnc2)c2nc(NC(=O)c3cnn(C)c3)[nH]c12 [compound 260, N-[7-methoxy-4-(pyridin-3-yl)-1H-1,3-benzodiazol-2-yl]-1-methyl-1H-pyrazole-4-carboxamide]
	< 10	< 100	> 1000	COc1ccc(C2CCOCC2)c2nc(NC(=O)c3ccc(N4C(=O)CCC4=O)cc3)[nH]c12 [compound 250, 4-(2,5-dioxopyrrolidin-1-yl)-N-[7-methoxy-4-(oxan-4-yl)-1H-1,3-benzodiazol-2-yl]benzamide]
	< 10	> 1000	< 1000	COc1ccc(C2CCCCC2)c2nc(NC(=O)c3ccnc(N4CCOCC4)c3)[nH]c12 [compound 17, N-(4-Cyclohexyl-7-methoxy-1H-benzoimidazol-2-yl)-2-morpholin-4-yl-isonicotinamide]
	< 10	< 100	< 10	COc1ccc(-c2ccccc2)c2nc(NC(=O)c3ccc(F)cc3)[nH]c12 [compound 2, 4-Fluoro-N-(7-methoxy-4-phenyl-1H-benzoimidazol-2-yl)-benzamide]
	< 10	< 1000	< 1000	COc1ccc(-c2ccccc2)c2nc(NC(=O)N3CCC(C)CC3)[nH]c12 [compound 28, 4-Methyl-piperidine-1-carboxylic acid (7-methoxy-4-phenyl-1H-benzoimidazol-2-yl)-amide]
